Article PMC4115637 (Pharmacology Research & Perspectives, 2014)
Positions count from the first letter of the chain named. Structures can show the parent of a compound that is named as a salt. Where two headings read alike, the source gives them in different places.

Key:
human TRPV3 [1] = molecular target: T1, human TRPV3 (Homo sapiens, UniProt Q8NET8); assay: Re-evaluation of screening hits as TRPV3 agonists; type: cell-based; details: Table 1
T1 sequence (Q8NET8 1-790): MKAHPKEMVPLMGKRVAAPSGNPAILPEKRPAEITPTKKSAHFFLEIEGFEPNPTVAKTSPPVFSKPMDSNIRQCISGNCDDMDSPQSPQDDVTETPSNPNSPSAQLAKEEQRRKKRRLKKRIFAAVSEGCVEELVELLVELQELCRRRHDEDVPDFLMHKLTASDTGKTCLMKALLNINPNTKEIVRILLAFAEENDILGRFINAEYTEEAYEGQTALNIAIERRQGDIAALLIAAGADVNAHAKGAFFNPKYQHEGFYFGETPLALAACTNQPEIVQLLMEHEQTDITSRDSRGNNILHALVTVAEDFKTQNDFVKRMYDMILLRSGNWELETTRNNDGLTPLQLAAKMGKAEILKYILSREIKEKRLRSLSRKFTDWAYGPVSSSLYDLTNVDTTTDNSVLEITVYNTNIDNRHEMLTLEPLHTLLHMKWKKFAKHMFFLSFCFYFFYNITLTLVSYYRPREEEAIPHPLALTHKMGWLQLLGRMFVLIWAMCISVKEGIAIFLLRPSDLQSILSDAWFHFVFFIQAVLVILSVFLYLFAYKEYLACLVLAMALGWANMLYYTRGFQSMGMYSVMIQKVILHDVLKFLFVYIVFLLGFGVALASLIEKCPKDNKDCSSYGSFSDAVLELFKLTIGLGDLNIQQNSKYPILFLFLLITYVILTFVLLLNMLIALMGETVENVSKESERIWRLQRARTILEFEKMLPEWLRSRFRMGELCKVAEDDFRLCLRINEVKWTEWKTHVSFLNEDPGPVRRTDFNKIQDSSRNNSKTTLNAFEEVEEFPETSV

human TRPV3 [2] = molecular target: T1, human TRPV3; assay: Re-evaluation of screening hits as TRPV3 antagonists; type: cell-based; details: Table 2; selectivity versus other TRP channel overexpressing HEK-293 lines
human TRPV3 [3] = molecular target: T1, human TRPV3; assay: Inhibition of agonist-induced calcium flux in TRPV3 overexpressing HEK-293 cells; type: cell-based; details: all three agonists (drofenine, carvacrol, 2-APB)
human TRPV1 = human TRPV1 (Homo sapiens, UniProt Q8NER1); assay: Calcium flux in HEK-293 cells overexpressing TRPV1; type: cell-based; details: Table 2 comment
human TRPV3 [4] = molecular target: T1, human TRPV3; assay: Calcium flux in TRPV3 overexpressing HEK-293 cells; type: cell-based
TRPV3-H426N = molecular target: T2, TRPV3-H426N (Homo sapiens, UniProt Q8NET8, H426N); assay: Calcium flux in HEK-293 cells transiently transfected with TRPV3-H426N; type: cell-based; details: agonist 100 μmol/L
T2 sequence (Q8NET8 1-790 H426N): T1 sequence (Q8NET8 1-790) with H426N

TRPV3-R696K = molecular target: T3, TRPV3-R696K (Homo sapiens, UniProt Q8NET8, R696K); assay: Calcium flux in HEK-293 cells transiently transfected with TRPV3-R696K; type: cell-based; details: 100 μmol/L carvacrol, 100 μmol/L 2-APB, 100 and 200 μmol/L drofenine
T3 sequence (Q8NET8 1-790 R696K): T1 sequence (Q8NET8 1-790) with R696K

TRPV3 in HaCaT cells = molecular target: T4, TRPV3 in HaCaT cells (Homo sapiens, UniProt Q8NET8); assay: Calcium flux in HaCaT cells; type: cell-based
T4 sequence (Q8NET8 1-790): T1 sequence (Q8NET8 1-790)

TRPV3 = details: cited from earlier work; for EC50: depending on the model used
HaCaT cells = assay: Cell viability assay; type: cell-based, human; details: data not shown

Chain of human TRPV1 (Q8NER1 whole entry): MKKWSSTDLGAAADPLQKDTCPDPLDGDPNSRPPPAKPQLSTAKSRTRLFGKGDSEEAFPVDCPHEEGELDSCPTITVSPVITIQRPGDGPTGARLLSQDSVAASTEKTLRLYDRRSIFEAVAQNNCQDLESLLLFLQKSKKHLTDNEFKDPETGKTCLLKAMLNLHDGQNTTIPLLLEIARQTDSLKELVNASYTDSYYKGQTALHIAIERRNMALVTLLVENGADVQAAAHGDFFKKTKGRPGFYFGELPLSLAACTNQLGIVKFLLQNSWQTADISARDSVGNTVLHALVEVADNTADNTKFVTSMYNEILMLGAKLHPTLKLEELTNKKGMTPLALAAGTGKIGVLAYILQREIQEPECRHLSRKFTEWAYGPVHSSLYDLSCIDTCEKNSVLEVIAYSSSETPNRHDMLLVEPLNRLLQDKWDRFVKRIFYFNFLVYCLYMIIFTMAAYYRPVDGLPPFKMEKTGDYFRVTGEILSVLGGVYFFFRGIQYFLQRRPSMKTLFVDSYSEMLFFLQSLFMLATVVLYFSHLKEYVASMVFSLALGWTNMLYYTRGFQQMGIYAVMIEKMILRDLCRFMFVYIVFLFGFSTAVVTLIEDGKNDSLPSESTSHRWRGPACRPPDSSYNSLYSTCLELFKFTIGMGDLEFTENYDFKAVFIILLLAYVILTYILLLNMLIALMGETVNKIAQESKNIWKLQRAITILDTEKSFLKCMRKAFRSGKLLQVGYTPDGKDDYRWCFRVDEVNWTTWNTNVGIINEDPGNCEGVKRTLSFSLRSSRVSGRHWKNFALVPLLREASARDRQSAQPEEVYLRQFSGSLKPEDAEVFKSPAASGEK

Row | Compound | Comment(s): re-evaluation as TRPV3 agonist (human TRPV3 [1]) | Comment(s): re-evaluation as TRPV3 antagonist (human TRPV3 [2]) | further results
1 | CC(=O)Nc1ccccc1 [Acetanilide] | Inactive in confirmation assay | – | –
2 | CC(=O)OCC[N+](C)(C)C [Acetylcholine] | Nonselective; HEK-293 response | – | –
3 | CCCCCCc1ccc(O)cc1O.Nc1c2ccccc2nc2ccccc12 [Acrisorcin] | 4-Hexylresorcinol inactive as TRPV3 agonist; 9-aminoacridine fluorescence interference | – | –
4 | CC(C)COCC(CN(Cc1ccccc1)c1ccccc1)N1CCCC1.Cl.O (centres unmarked) [Bepradil HCl] | Inactive in confirmation assay | – | –
5 | C[N+](C)(C)CCOC(N)=O [Carbachol] | Nonselective; HEK-293 response | – | –
6 | O=C(N[C@H](CO)[C@H](O)c1ccc([N+](=O)[O-])cc1)C(Cl)Cl [Chloramphenicol] | – | Not inhibitory on rescreen | –
7 | CCCCOc1ccc(C(=O)CCN2CCCCC2)cc1 [Dyclonine HCl] | – | Not inhibitory on rescreen | –
8 | COc1cc([C@@H]2c3cc4c(cc3[C@@H](O[C@@H]3O[C@@H]5CO[C@@H](C)O[C@H]5[C@H](O)[C@H]3O)[C@H]3COC(=O)[C@H]23)OCO4)cc(OC)c1O [Etoposide] | – | Cytotoxic, false positive | –
9 | Cc1cccc2c1N(C(=O)CSc1ccc(C(F)(F)F)cn1)CCC2 [TRPV3 antagonist, 2-(5-trifluoromethyl-pyridine-2ylsulfanyl)-1-(8-methyl-3,4-dihydro-2H-quinolin-1-yl)-ethanone] | – | – | IC50 (human TRPV3 [3]): 1 to 3 µM
10 | Cc1ccc(C(C)C)cc1O [carvacrol] | – | – | EC50 (human TRPV3 [4]): 438 µM; calcium flux in TRPV3-H426N relative to TRPV3-WT (TRPV3-H426N): no effect; calcium flux in TRPV3-R696K (TRPV3-R696K): diminished-to-no-function; EC50 (TRPV3 in HaCaT cells): > 1000 µM
11 | Cc1ccc(C(C)(C)C)c(O)c1 [cresol, 6-tert-butyl-m-cresol] | – | – | EC50 (TRPV3; ref Vogt-Eisele et al. [2007]): > 6000 µM
12 | CC(C)=CCC/C(C)=C/CC/C(C)=C/COP(=O)(O)OP(=O)(O)O [farnesyl pyrophosphate] | – | – | EC50 (TRPV3; ref Bang et al. [2010]): ~0.13 µM
13 | O=C1NC(c2cccc([N+](=O)[O-])c2)=CCN1c1ccccc1O [icilin] | – | – | cytotoxicity (HaCaT cells): potently cytotoxic; inhibition of TRPV3 (TRPV3; ref Sherkheli et al. [2012]): inhibits TRPV3 at low micromolar concentrations
14 | Acriflavinium HCl | Fluorescence interference | – | –

Second part, led by results:

Row | Comment(s): re-evaluation as TRPV3 agonist (human TRPV3 [1]) | Comment(s): re-evaluation as TRPV3 antagonist (human TRPV3 [2]) | Compound | further results
15 | – | Not inhibitory on rescreen | CC[C@H]1OC(=O)[C@H](C)[C@@H](O[C@H]2C[C@@](C)(OC)[C@@H](O)[C@H](C)O2)[C@H](C)[C@@H](O[C@@H]2O[C@H](C)C[C@H](N(C)C)[C@H]2O)[C@](C)(O)C[C@@H](C)C(=O)[C@H](C)[C@@H](O)[C@]1(C)O [Erythromycin] | –
16 | – | Nonselective; also inhibited TRPV1 | O=C(O)c1ccccc1Nc1cccc(C(F)(F)F)c1 [Flufenamic acid] | –
17 | Nonselective; HEK-293 response | – | CC(=O)OC(C)C[N+](C)(C)C (centres unmarked) [Methacholine] | –
18 | – | Not inhibitory on rescreen | CN[C@@H]1[C@H](O)[C@H](NC)[C@H]2O[C@@]3(O)C(=O)C[C@@H](C)O[C@H]3O[C@@H]2[C@H]1O.Cl.Cl.O.O.O.O.O [Spectinomycin HCl] | –
19 | – | Not inhibitory on rescreen | O=C1C(CC[S+]([O-])c2ccccc2)C(=O)N(c2ccccc2)N1c1ccccc1 (centres unmarked) [Sulfinpyrazone] | –
20 | – | inhibited TRPA1>V3=V1 | CCCCNc1ccc(C(=O)OCCN(C)C)cc1 [Tetracaine HCl] | concentration of apparent TRPV1 agonist activity (human TRPV1): < 25 µmol/L
21 | – | Nonselective; also inhibited TRPV1 | CC(=O)CC(c1ccccc1)c1c(O)c2ccccc2oc1=O (centres unmarked) [Warfarin] | –
